Two molecules from ChEMBL document CHEMBL5126581, “Chlorinated benzothiadiazines inhibit angiogenesis through suppression of VEGFR2 phosphorylation” (Bioorg Med Chem, 2022) can be followed below.

Data set [1] concerns the target Activated CDC42 kinase 1 (Homo sapiens) (UniProt Q07912). The experiment in a line: Inhibition of TNK2 (unknown origin) assessed as residual activity at 10 uM incubated for 1 hr by KinomeScan analysis relative to control.
Data set [2] deals with T1, Vascular endothelial growth factor receptor 2 (Homo sapiens, UniProt P35968). The experiment in a line: Inhibition of VEGFR2 (unknown origin) using poly[Glu:Tyr] (4:1) as substrate incubated for 45 mins by kinase-glo max reagent based luminescence analysis. Background: Kinase-Glo measures the ATP left after a reaction by luminescence.
For data set [3], the target named is Mast/stem cell growth factor receptor Kit (Homo sapiens) (UniProt P10721). The experiment in a line: Inhibition of c-KIT (unknown origin) assessed as residual activity at 10 uM incubated for 1 hr by KinomeScan analysis relative to control.
Data set [4] concerns the target T1, Vascular endothelial growth factor receptor 2. The experiment in a line: Inhibition of VEGFR2 phosphorylation in VEGF-induced HUVEC cells assessed as reduction in pVEGFR2 level at 20 uM incubated for 5 mins by Western blot analysis. Type of data set: cell-based. A general note: Immunoblotting shows a protein as a band on a membrane.
The nature of data set [5]: Cytotoxicity against HEK293 cells assessed as inhibition of cell growth incubated for 72 hrs by MTS assay. Type of data set: toxicity, cell-based. The conditions noted are these: human.
Data set [6] deals with T1, Vascular endothelial growth factor receptor 2. The experiment in a line: Inhibition of VEGFR2 (unknown origin) using poly[Glu:Tyr] (4:1) as substrate at 20 uM incubated for 45 mins by kinase-glo max reagent based luminescence analysis relative to control.
Data set [7] can be described thus: Selectivity index, ratio of IC50 for cytotoxicity against HEK293 cells to IC50 for cytotoxicity against human MDA-MB-468 cells. Type of data set: toxicity, cell-based. The conditions noted are these: HEK293 cells versus MDA-MB-468 cells, read-out: Ratio IC50.
The test system of a further data set is MDA-MB-468. The experiment in a line: Cytotoxicity against human MDA-MB-468 cells assessed as inhibition of cell growth incubated for 72 hrs by MTS assay. Type of data set: functional, cell-based. The conditions noted are these: MDA-MB-468, 72 h. (In general: Formazan colour is commonly taken as a measure of viable cells.)
The target of data set [8] is T2, Myosin light chain kinase family member 4 (Homo sapiens) (UniProt Q86YV6).
T2 sequence (whole entry): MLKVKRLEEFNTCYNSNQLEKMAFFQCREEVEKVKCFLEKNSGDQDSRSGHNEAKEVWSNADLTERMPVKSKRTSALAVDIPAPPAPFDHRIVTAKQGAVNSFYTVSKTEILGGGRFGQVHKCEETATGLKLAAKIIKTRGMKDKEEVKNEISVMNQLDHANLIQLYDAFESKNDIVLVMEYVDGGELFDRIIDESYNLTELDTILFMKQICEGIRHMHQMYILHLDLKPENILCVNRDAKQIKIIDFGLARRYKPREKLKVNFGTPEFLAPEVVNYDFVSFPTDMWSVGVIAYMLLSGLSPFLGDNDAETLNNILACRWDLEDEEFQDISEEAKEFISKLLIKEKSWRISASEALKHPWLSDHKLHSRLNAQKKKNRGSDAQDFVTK
The experiment in a line: Inhibition of MYLK4 (unknown origin) assessed as residual activity at 10 uM incubated for 1 hr by KinomeScan analysis relative to control.

The next data set concerns HUVEC. The experiment in a line: Antiangiogenic activity in HUVEC cells assessed as inhibition of VEGF-induced cell proliferation at 20 uM incubated for 48 hrs by MTT assay relative to control. Type of data set: functional. The conditions noted are these: Homo sapiens, values are per cent of control.
For data set [9], the target named is T3, Serine/threonine-protein kinase D2 (Homo sapiens) (UniProt Q9BZL6).
T3 sequence (whole entry): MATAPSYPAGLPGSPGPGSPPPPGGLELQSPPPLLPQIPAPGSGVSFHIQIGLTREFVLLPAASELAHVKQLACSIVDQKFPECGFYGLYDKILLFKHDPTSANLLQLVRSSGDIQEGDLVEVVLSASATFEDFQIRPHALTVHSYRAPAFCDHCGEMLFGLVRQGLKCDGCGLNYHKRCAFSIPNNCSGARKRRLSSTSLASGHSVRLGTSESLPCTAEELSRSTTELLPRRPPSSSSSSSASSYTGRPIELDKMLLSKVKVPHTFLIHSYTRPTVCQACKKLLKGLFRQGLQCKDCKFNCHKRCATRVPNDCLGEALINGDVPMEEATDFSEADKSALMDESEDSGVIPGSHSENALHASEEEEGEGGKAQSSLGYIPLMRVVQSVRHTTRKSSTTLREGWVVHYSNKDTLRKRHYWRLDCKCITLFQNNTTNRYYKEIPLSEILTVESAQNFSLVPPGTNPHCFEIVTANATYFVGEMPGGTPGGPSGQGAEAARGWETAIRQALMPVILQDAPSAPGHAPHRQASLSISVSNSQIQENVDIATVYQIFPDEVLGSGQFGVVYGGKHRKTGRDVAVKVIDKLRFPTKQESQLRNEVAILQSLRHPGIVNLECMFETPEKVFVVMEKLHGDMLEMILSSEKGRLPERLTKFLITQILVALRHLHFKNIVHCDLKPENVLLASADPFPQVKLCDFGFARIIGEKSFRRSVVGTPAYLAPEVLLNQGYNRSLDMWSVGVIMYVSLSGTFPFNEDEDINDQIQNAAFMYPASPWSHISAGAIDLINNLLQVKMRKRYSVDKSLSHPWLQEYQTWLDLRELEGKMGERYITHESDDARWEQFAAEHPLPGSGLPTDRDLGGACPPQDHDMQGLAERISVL
The experiment in a line: Inhibition of PRKD2 (unknown origin) assessed as residual activity at 10 uM incubated for 1 hr by KinomeScan analysis relative to control.

A short description of data set [10]: Cytotoxicity against HEK293 cells assessed as inhibition of cell growth at 50 uM incubated for 72 hrs by MTS assay relative to control. Type of data set: toxicity, cell-based. The conditions noted are these: human.

The structures appear in SMILES notation. Calls of active or inactive are those of the source. The rule behind the calls is not given here.

By IC50 is commonly meant the point on the concentration scale where inhibition reaches its midpoint. By inhibition is commonly meant the change of the read-out against control, counted positive when it falls.

T1 sequence (P35968 whole entry): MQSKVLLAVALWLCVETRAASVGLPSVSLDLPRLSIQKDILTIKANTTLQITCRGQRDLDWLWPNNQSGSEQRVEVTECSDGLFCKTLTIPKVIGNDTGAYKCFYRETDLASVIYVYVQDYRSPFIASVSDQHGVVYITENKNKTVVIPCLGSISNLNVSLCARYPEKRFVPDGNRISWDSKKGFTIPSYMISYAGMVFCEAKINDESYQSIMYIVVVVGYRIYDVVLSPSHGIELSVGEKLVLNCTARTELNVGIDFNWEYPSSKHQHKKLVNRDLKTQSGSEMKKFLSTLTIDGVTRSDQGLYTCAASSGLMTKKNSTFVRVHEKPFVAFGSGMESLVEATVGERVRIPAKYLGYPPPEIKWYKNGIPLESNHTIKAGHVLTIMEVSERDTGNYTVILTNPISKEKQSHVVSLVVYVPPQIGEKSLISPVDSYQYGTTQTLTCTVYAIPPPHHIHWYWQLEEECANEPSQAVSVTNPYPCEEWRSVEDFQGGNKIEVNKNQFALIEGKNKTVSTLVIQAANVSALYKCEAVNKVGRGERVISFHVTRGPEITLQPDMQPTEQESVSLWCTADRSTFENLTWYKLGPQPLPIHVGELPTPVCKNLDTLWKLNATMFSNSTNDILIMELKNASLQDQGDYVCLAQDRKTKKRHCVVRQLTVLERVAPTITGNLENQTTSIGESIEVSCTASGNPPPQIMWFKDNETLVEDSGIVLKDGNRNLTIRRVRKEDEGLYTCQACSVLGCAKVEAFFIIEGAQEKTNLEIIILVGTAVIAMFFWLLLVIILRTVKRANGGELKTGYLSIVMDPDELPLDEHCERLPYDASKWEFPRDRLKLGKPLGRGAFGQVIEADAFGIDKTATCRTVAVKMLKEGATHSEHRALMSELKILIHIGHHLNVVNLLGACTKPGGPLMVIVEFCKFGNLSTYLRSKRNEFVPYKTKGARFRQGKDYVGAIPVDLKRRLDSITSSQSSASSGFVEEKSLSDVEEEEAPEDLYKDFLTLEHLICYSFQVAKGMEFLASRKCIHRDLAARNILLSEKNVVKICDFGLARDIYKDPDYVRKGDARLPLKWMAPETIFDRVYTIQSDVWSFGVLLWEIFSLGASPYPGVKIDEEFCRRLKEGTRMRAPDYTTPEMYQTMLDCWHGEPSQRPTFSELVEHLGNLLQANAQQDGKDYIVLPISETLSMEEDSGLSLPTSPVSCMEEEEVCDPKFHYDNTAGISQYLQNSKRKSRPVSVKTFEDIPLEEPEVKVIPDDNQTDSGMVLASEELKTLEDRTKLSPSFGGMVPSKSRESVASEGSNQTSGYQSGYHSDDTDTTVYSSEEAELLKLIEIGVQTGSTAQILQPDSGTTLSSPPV
Mast/stem cell growth factor receptor Kit (Homo sapiens), sequence (P10721 whole entry): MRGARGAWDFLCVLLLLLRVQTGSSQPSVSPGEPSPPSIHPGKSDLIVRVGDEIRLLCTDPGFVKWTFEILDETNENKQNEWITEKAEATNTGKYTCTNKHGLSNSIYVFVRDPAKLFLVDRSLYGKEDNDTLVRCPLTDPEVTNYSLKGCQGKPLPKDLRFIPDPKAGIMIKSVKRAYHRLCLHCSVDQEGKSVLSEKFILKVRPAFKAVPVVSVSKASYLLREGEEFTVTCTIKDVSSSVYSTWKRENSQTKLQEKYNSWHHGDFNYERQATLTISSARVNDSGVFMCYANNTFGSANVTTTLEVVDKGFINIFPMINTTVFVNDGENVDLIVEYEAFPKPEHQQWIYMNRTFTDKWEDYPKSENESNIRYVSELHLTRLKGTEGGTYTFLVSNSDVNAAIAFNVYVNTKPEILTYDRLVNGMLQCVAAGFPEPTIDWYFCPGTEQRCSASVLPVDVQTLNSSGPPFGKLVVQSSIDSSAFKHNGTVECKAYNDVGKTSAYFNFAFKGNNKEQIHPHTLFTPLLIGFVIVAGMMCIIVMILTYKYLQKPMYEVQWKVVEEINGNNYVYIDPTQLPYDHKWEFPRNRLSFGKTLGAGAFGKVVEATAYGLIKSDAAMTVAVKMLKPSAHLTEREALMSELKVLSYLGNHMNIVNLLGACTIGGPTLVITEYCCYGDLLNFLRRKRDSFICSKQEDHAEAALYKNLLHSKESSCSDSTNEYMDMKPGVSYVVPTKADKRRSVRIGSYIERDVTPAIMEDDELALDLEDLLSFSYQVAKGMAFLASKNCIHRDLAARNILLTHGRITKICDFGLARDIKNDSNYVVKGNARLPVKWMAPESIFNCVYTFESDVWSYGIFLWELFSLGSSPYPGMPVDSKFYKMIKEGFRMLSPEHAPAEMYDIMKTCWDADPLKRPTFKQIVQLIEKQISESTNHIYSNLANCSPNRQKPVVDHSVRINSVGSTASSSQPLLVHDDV
Activated CDC42 kinase 1 (Homo sapiens), sequence (Q07912 whole entry, looked up): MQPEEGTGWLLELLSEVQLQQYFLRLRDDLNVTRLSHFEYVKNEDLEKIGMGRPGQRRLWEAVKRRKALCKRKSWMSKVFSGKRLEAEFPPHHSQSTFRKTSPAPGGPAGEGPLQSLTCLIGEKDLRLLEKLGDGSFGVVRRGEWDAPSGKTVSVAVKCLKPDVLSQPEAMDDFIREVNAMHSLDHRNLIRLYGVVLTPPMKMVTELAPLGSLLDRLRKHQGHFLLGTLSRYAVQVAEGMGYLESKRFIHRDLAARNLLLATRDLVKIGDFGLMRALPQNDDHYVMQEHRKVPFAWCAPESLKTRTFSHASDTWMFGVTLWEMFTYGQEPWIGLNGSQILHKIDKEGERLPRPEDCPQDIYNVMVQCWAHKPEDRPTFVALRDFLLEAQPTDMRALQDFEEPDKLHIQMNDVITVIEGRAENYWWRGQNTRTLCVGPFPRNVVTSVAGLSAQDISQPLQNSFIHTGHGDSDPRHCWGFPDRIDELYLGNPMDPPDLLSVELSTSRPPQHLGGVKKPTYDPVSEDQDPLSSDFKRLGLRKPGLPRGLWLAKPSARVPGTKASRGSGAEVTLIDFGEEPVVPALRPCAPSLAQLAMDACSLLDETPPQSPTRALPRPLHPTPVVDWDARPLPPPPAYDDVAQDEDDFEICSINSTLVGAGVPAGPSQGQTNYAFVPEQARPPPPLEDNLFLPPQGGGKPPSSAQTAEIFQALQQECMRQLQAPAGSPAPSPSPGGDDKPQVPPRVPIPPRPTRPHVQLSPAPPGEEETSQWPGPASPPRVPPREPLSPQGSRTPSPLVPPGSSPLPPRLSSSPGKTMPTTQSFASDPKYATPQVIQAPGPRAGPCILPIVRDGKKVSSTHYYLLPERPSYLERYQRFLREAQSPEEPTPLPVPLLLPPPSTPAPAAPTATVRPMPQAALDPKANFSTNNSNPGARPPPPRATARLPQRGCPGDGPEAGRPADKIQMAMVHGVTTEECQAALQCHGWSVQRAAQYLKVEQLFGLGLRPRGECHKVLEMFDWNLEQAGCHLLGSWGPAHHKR

Take `O=S1(=O)N=C(NCc2ccc(OC(F)(F)F)cc2)Nc2cc(Cl)ccc21`: the Activity in [1] worked out at 0.1%; in data set [3], 32%; in [8], 33%; in data set [9], 8%. Besides, the IC50 in data set [2] stood at 140 µM; with MDA-MB-468, 48 µM. Further, the inhibition entry in data set [4] is “Active”. The IC50 at 72 h in data set [5] stood at 77.2 µM. Further, the inhibition in [6] came out at 33%. The selectivity ratio in data set [7] was determined as 1.6. Further, in the data set on HUVEC, the growth, % of control at 20 µM came out at 199%.

For `CNC(=O)c1cc(Oc2ccc(NC(=O)Nc3ccc(Cl)c(C(F)(F)F)c3)cc2)ccn1` [SORAFENIB], in [10], the inhibition at 72 h, 50 µM is 99%. Also, the IC50 at 72 h in data set [5] is 2.95 µM. For the same molecule, in the data set with MDA-MB-468, the IC50 is 7.31 µM.
